From patent publication EP1935984A1 (priority 2006, dated 2008) come the findings set out here.

One experiment has as its system wild type B.subtilis PB2. As to conditions: concentrations of 30mM and 40mM KSorbate.
Experiment [1] relates to mutant strain ATB004 (yhcA). Nature of the experiment: microbe, parasite or virus in culture. As to conditions: Bacillus subtilis, pH 6.4, read-out: GI% (growth inhibition). As to the method: (§1) To get a better understanding of the global response of Bacillus subtilis enduring sorbic acid stress, DNA microarray analysis was performed. We studied changes in gene expression after 10, 20, 30, 40 and 50 min of exposure to potassium sorbate in comparison to an untreated control. […] Changes in gene expression were studied using spotted oligo-arrays. The microarray consisted of 4100 gene specific 65-mer oligonucleotides, representing 4,100 of the 4,106 possible ORFs in B. subtilis (as reported for the B. subtilis genome at http://genolist.pasteur.fr/SubtiList/), spotted in duplo onto glass slides. Total RNA, isolated from the sorbate stressed and control cultures of each time-point, was labelled with the fluorescent dyes Cy5-dUTP and Cy3-dUTP respectively and hybridized onto the same slide. Biologically independent experiments were performed in duplo. […] Since the variation in differential expression measurements depends on the intensity (smaller variation at higher- and larger variation at lower fluorescence intensity levels), we applied an intensity-dependent method to identify differentially expressed genes (Yang et al., (2002)a, Genome Biol., 3: 0062). […] According to the KEGG (Kyoto Encyclopedia of Genes and Genomes, Kaneshisa M, et al (2006), Nucl. Acid Res., 34:354-357) database, this enzyme may also be involved in the degradation and biosynthesis of various metabolites, like arginine, proline, tyrosine, tryptophan and pyrine. […] YhcA is a possible multi-drug efflux pump and comprises of thirteen putative trans-membrane domains. YhcA is both a member of the drug resistance transporter EmrB/QacA subfamily and the major facilitator superfamily. […] We followed the growth by measuring the increase in OD600 and calculated growth inhibition percentages (Table 1). […] Table 1. Susceptibility of a selected mutant strain to sorbic acid stress.
(§2) All Bacillus subtilis strains used in this study are derivatives of the laboratory wild-type strain PB2 (kindly provided by C.W. Price) and are listed in Table 4. Mutant strains ATB002 (ureC), ATB007 (sigL) and ATB008 (sigM) were obtained by transformation of strain PB2 with chromosomal DNA of strains SF168U (Cruz-Ramos H., et al., (1997) J. Bacteriol., 179:3371-3373), QB5505 (Debarbouille M., et al., (1991), Proc. Natl. Acad. Sci., 181: 2059-2066) and AM1447 (Thackray PD and Moir A, (2003), J. Bacteriol., 185: 3491-3498), respectively. To obtain mutant strains ATB001 (fabHB), ATB003 (ycsF), ATB004 (yhcA), ATB005 (yhcB) and ATB006 (yxkJ), the wild-type strain PB2 was transformed with chromosomal DNA of strains YHFBd, YCSFd, YHCAd, YHCBd and YXKJd, respectively, which were all received from the Japanese Consortium for Functional Analysis of the B. subtilis Genome (JAFAN, http://bacillus.genome.ad.jp/). Transformants were selected on LB (Luria-Bertani) agar plates containing appropriate antibiotics, after overnight incubation at 37°C. Depending on the strain, the used antibiotics were chloramphenicol (6 µg/ml), erythromycin (0.5 µg/ml), spectinomycin (100 µg/ml) or kanamycin (10 µg/ml). Isolation of chromosomal DNA was performed according to Ward JB. (Ward JB et al, (1973), J. Bacteriol., 116: 719-726) and transformations were carried out as described by Kunst et al (Kunst F. et al, (1995) J. Bacteriol., 177: 2403-2407).

The test system of experiment [2] is Bacillus subtilis wild-type strain PB2. Nature of the experiment: microbe, parasite or virus in culture. The procedure: as §1, §2
[3] abbreviates: pH 6.4, read-out: GI% (growth inhibition).

A word on the inhibition: it is the relative decrease from the control value, in per cent.

The structures appear in SMILES notation.

Experimental for wild type B.subtilis PB2: On MB#1 first a test screen was performed on 15mM KSorbate.
The mutants and the wild type PB2 as a control were grown over night in liquid LB-media, pH6.4, 80mM MOPS and 100µg/ml spectinomycin (for the mutants only) at 37°C and 250rpm. The cultures were diluted to an OD600 of 0.2-0.25, grown to OD600=0.5 and again diluted to an OD600=0.020-0.025. At log-phase (OD600=0.2) a 200µl sample was taken, 10°fold to 10^-6fold diluted and ~5µl plated on the same LB-plates, pH6.4, 80mM MOPS containing 0mM, 15mM, 30mM and 40mM KSorbate. After 24h of incubation at 37°C pictures of the plates were taken.

For the compound `C/C=C/C=C/C(=O)[O-].[K+]` [Potassium sorbate, potassium sorbate], the “growth of the wild type on sorbate plates” value in the experiment with wild type B.subtilis PB2 is “reduce the growth of the wild type”. For the same compound, in experiment [1], the inhibition at 3000 µM came to 45.1%, the inhibition at 6000 µM came to 50%, the inhibition at 15000 µM was 72% and the inhibition at 30000 µM is 79.3%. Besides, in experiment [2] (setting [3]), the inhibition at 3000 µM amounted to 26.1%, the inhibition at 6000 µM amounted to 40.7%, the inhibition at 15000 µM worked out at 63.6% and the inhibition at 30000 µM came to 73.2%. For the same compound, in experiment [2] (read-out: reduction in the growth rate), the inhibition of growth at 3000 µM came out at 26%.
